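Each compound was tested at five concentrations against cells in 96-well plates for 48 hours. GI50 = concentration required for 50% inhibition of growth. TGI marks complete inhibition of growth.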
Assays:
Assay in all cases: inhibition of tumour cell growth, NCI panel, 48 h
[1] = test system: ACHN renal
[2] = test system: BT-549 breast
[3] = test system: CAKI-1 renal
[4] = test system: HCT-116 colon
[5] = test system: MCF7 breast
[6] = test system: NCI/ADR-RES ovarian
[7] = test system: OVCAR-5 ovarian
[8] = test system: SF-295 CNS
[9] = test system: SF-539 CNS
[10] = test system: UACC-62 melanoma

## Cc1cccc2c1NC(=O)[C@@]21[C@H](C(=O)c2ccccc2)[C@]2(C(=O)Nc3ccccc32)[C@H]2CCCN21
[1]
  GI50: 19.6 µM
  TGI: 73 µM
[2]
  GI50: 27.4 µM
  TGI: > 100 µM
[3]
  GI50: 22.4 µM
  TGI: > 100 µM
[4]
  GI50: 15.2 µM
  TGI: 46.5 µM
[5]
  GI50: 14.3 µM
  TGI: > 100 µM
[6]
  GI50: 20.4 µM
  TGI: 71.5 µM
[7]
  GI50: > 100 µM
  TGI: > 100 µM
[8]
  GI50: 74.6 µM
  TGI: > 100 µM
[9]
  GI50: 18.6 µM
  TGI: 48.9 µM
[10]
  GI50: 12.5 µM
  TGI: > 100 µM

## CCCCNC(=O)Oc1ccc2c(=O)c3sc4c(=O)c5ccccc5c(=O)c4c3c(=O)c2c1
[1]
  GI50: 0.874 µM
  TGI: 2.18 µM
[2]
  GI50: 0.154 µM
  TGI: 0.293 µM
[3]
  GI50: 1.24 µM
  TGI: 2.86 µM
[4]
  GI50: 0.334 µM
  TGI: 1.76 µM
[5]
  GI50: 0.429 µM
  TGI: 2.18 µM
[6]
  GI50: 1.58 µM
  TGI: 8.43 µM
[7]
  GI50: 2.02 µM
  TGI: 4.55 µM
[8]
  GI50: 0.176 µM
  TGI: 0.373 µM
[9]
  GI50: 0.235 µM
  TGI: 0.767 µM
[10]
  GI50: 0.17 µM
  TGI: 0.336 µM

## COC1CC2C=CC3C4OC2(/C(C)=C/C(C)C(C(C)O)OC1=O)C3C(O)C(C)C4OC(=O)c1ccc[nH]1 (configuration not stated)
[1]
  TGI: > 100 µM
[2]
  TGI: > 100 µM
[3]
  TGI: > 100 µM
[4]
  TGI: > 100 µM
[5]
  TGI: > 100 µM
[6]
  TGI: > 100 µM
[7]
  TGI: > 100 µM
[8]
  TGI: > 100 µM
[9]
  TGI: > 100 µM
[10]
  TGI: > 100 µM

## COc1ccccc1N1CCN(C(=O)c2ccc(NS(=O)(=O)c3cccc4cccnc34)cc2)CC1
[1]
  GI50: > 71 µM
  TGI: > 100 µM
[2]
  GI50: > 76.5 µM
  TGI: > 100 µM
[3]
  GI50: > 100 µM
  TGI: > 100 µM
[4]
  GI50: > 94.2 µM
  TGI: > 100 µM
[5]
  GI50: > 49.4 µM
  TGI: > 100 µM
[6]
  GI50: > 100 µM
  TGI: > 100 µM
[7]
  GI50: > 100 µM
  TGI: > 100 µM
[8]
  GI50: > 39 µM
  TGI: > 100 µM
[9]
  GI50: > 54.4 µM
  TGI: > 100 µM
[10]
  GI50: > 100 µM
  TGI: > 100 µM

## Cc1ccc2c(N/N=C\c3ccco3)cc(C)nc2n1
[1]
  GI50: 3.37 µM
  TGI: 12.4 µM
[2]
  GI50: 4.37 µM
  TGI: 14.9 µM
[3]
  GI50: 2.93 µM
  TGI: 12.8 µM
[4]
  GI50: 2.95 µM
  TGI: 11 µM
[5]
  GI50: 3.28 µM
  TGI: 15.5 µM
[6]
  GI50: 6.25 µM
  TGI: 26.1 µM
[7]
  GI50: 11.8 µM
  TGI: 26.3 µM
[8]
  GI50: 3.31 µM
  TGI: 14.3 µM
[9]
  GI50: 2.01 µM
  TGI: 3.74 µM
[10]
  GI50: 1.81 µM
  TGI: 3.69 µM

## C=C1SC(=Nc2ccccc2Cl)N(C(=O)c2sc3ccccc3c2Cl)C1(C)C
[1]
  GI50: 3.24 µM
  TGI: > 46 µM
[2]
  GI50: 10 µM
  TGI: 49.2 µM
[3]
  GI50: 2.73 µM
  TGI: 19.4 µM
[4]
  GI50: 8.01 µM
  TGI: > 44.5 µM
[5]
  GI50: 3.76 µM
  TGI: > 51.7 µM
[6]
  GI50: 3.71 µM
  TGI: > 53 µM
[7]
  GI50: 10.9 µM
  TGI: > 100 µM
[8]
  GI50: 2.07 µM
  TGI: 10.7 µM
[9]
  GI50: 14 µM
  TGI: > 100 µM
[10]
  GI50: 9.24 µM
  TGI: > 100 µM

## Cc1cccc2c1O/C(=C\c1ncc([N+](=O)[O-])n1C)C2=O
[1]
  GI50: 0.0595 µM
  TGI: 0.341 µM
[2]
  GI50: 0.275 µM
  TGI: 1.19 µM
[3]
  GI50: 0.135 µM
  TGI: 0.479 µM
[4]
  GI50: 0.0557 µM
  TGI: 0.422 µM
[5]
  GI50: 0.243 µM
  TGI: 3.27 µM
[6]
  GI50: 0.2 µM
  TGI: 0.783 µM
[7]
  GI50: 0.576 µM
  TGI: 4.45 µM
[8]
  GI50: 0.516 µM
  TGI: 2.62 µM
[9]
  GI50: 1.15 µM
  TGI: 3.87 µM
[10]
  GI50: 0.316 µM
  TGI: 1.09 µM

## N=C1C(c2nc3ccccc3s2)=C(O)CN1c1ccc(Cl)cc1Cl
[1]
  GI50: 13 µM
  TGI: 28.8 µM
[2]
  GI50: 17.8 µM
  TGI: 49.6 µM
[3]
  GI50: 3.27 µM
  TGI: 20.3 µM
[4]
  GI50: 4.95 µM
  TGI: 25.6 µM
[5]
  GI50: 41.2 µM
  TGI: > 100 µM
[6]
  GI50: 13.5 µM
  TGI: 37.4 µM
[7]
  GI50: 34.8 µM
  TGI: > 100 µM
[8]
  GI50: 12.7 µM
  TGI: 52.4 µM
[9]
  GI50: 7.62 µM
  TGI: 26.7 µM
[10]
  GI50: 12 µM
  TGI: 52.9 µM

## O=S(=O)(NCCCNc1cc(-c2cn(-c3ccccc3)nc2-c2cccc(O)c2)ccn1)c1cccc2ccccc12
[1]
  GI50: 3.7 µM
  TGI: > 100 µM
[2]
  GI50: 2.47 µM
  TGI: 7.58 µM
[3]
  GI50: 3.37 µM
  TGI: > 100 µM
[4]
  GI50: 2.8 µM
  TGI: 12.4 µM
[5]
  GI50: 1.96 µM
  TGI: 5.45 µM
[6]
  GI50: 3.72 µM
  TGI: > 100 µM
[7]
  GI50: 8.43 µM
  TGI: > 100 µM
[8]
  GI50: 1.64 µM
  TGI: 4.32 µM
[9]
  GI50: 2.43 µM
  TGI: 20.2 µM
[10]
  GI50: 2.34 µM
  TGI: 8.38 µM

## CC1OC(O[C@H]2/C=C/C=C/C=C/C=C/C=C/C=C/C=C/[C@H](C)[C@@H](O)[C@@H](C)[C@H](C)OC(=O)C[C@H](O)C[C@H](O)CC[C@@H](O)[C@H](O)C[C@H](O)C[C@]3(O)C[C@H](O)[C@@H](C(=O)O)[C@H](C2)O3)C(O)C(N)C1O (some centres not stated)
[1]
  GI50: 6.47 µM
  TGI: 20.5 µM
[2]
  GI50: 20.6 µM
  TGI: 68.1 µM
[3]
  GI50: 12.7 µM
  TGI: 41.7 µM
[4]
  TGI: 50.2 µM
[5]
  TGI: 56.1 µM
[6]
  GI50: 24.9 µM
  TGI: 56.5 µM
[7]
  GI50: 27.3 µM
  TGI: 62.3 µM
[8]
  GI50: > 61.3 µM
  TGI: > 72.8 µM
[9]
  GI50: 19.3 µM
  TGI: 47.3 µM
[10]
  GI50: 21.8 µM
  TGI: 43.9 µM

## O=C1c2cccc3cc([N+](=O)[O-])cc(c23)C(=O)N1CCN1CCCC1
[1]
  GI50: 0.193 µM
  TGI: 0.706 µM
[2]
  GI50: 1.56 µM
  TGI: 7.55 µM
[3]
  GI50: 0.216 µM
  TGI: 0.892 µM
[4]
  GI50: 0.441 µM
  TGI: > 100 µM
[5]
  GI50: 0.309 µM
  TGI: 3.83 µM
[6]
  GI50: 0.871 µM
[7]
  GI50: 1.78 µM
  TGI: > 19.7 µM
[8]
  GI50: 0.227 µM
  TGI: 0.734 µM
[9]
  GI50: 0.487 µM
  TGI: 2.04 µM
[10]
  GI50: 0.322 µM
  TGI: 1.71 µM

## COc1ccc(C(=O)C(Br)C(Br)C(=O)O)cc1 (configuration not stated)
[1]
  TGI: > 100 µM
[2]
  TGI: 63.7 µM
[3]
  TGI: > 100 µM
[4]
  TGI: 44.9 µM
[5]
  TGI: > 100 µM
[6]
  TGI: > 100 µM
[7]
  TGI: > 100 µM
[8]
  TGI: > 100 µM
[9]
  TGI: 51.8 µM
[10]
  TGI: > 100 µM
